Test system: episomal HPV16 DNA in W12-20850 cells
Assay: W-12 cellular assay (episomal HPV-16 DNA, hybrid capture)
Type: cell-based, HPV16 (human papillomavirus)
Settings: Human papillomavirus 16, 96 h, four days incubation, episomal HPV-16 DNA quantified by hybrid capture, inhibition relative to untreated control cells
Experimental: Compounds of the current invention are believed useful in the treatment and/or prophylaxis of conditions and diseases associated with HPV infection. Activity mediated through HPV was determined using the following W-12 cellular assay.
The W12 cell line used contains HPV16 DNA and was derived from a low-grade cervical dysplasia tissue by Margaret Stanley and subsequently clonally selected by Paul Lambert (University of Wisconsin). One of these clones, W12-20850, contains 1000 copies of episomal HPV16 DNA and was used in the cell-based assay. W12-20850 cells were routinely cultured with a gamma-irradiated (6000 rads) feeder layer of 3T3 cells. Assays, however, were run in the absence of a 3T3 feeder layer. W12-20850 and 3T3 cells were routinely split when they were sub-confluent. W12-20850 were grown in W12 Medium which is constituted of 25% DMEM (Gibco BRL, Cat # 12430-047), 75% F12 Media (Gibco BRL, Cat # 11765-021) and 2.5% FBS. The additives include […] Adenine (Sigma, Cat # A-9795), 0.4 mg/ml Hydrocortisone (Calbiochem, Cat # 386698), […] Bovine Insulin (Sigma, Cat # I-1882), 8.4 ng/ml cholera toxin (Fluka, Cat # 26694) and 10 ng/ml EGF (Invitrogen, Cat # 13247-051). 3T3 cells were grown in DMEM containing 10% FBS. Cell lines were incubated at 37° C., in the presence of 5% CO2.
For the assay, W12-20850 cells were seeded into a 96 well plate-containing compound. Plates were incubated at 37° C. in the presence of 5% CO2, for four days. On the fourth day, cells were lysed and the amount of episomal HPV-16 DNA was quantified using a non-radioactive hybrid capture technique with HPV-16 specific capture and detection probes. The percent inhibition relative to untreated control cells was then determined.
The hybrid capture assay is run in a 96 well plate format. Hybridization plates (Nunc Maxisorb Cat # 450320) were coated with a mixture of capture probe and ReactiBind solution for at least 4 hours and then washed with 0.2)(SSC, 0.05% Tween20 (SSCT) prior to blocking with 150 μl/well of 0.2 N NaOH, 1% Igepal, 10 mg/ml hsDNA for 6-8 hours. The hybridization was carried out by mixing 271 μl of lysed cells with 45 μl of denatured detection probe in 6M guanidine isothiocyanate. To prevent evaporation, 50 μl of mineral oil was added to each well. The plate was then heated to 90° C. for 6.5 minutes and the hybridization continued at 42° C. overnight. Assay plates were washed 6 times with SSC/T. Anti-digoxigenin HRP-conjugated Ab (Boehringer Mannheim 1207733, 1:5000) was incubated in the wells for 30 min at room temperature and washed with PBS/0.05% Tween-20. SuperSignal LBA substrate (Pierce Cat # 37070) was added, and chemiluminescence was measured using Wallac 1420 Victor plate reader.

SMILES	IC50
Cn1ccc(C(=O)NC2CCCc3c2[nH]c2ccc(Cl)cc32)n1 (stereo not shown) [Example 49, N-(6-Chloro-2,3,4,9-tetrahydro-1H-carbazol-1-yl)-1-methyl-1H-pyrazole-3-carboxamide]	1650 nM
O=C(NC1CCCc2c1[nH]c1ccc(Br)cc21)c1ccc(Cl)cc1 (stereo not shown) [Example 23, N-(6-Bromo-2,3,4,9-tetrahydro-1H-carbazol-1-yl)4-chlorobenzamide]	17 nM
O=C(NC1CCCc2c1[nH]c1ccc(Br)cc21)c1ccc(F)cc1 (stereo not shown) [Example 20, N-(6-Bromo-2,3,4,9-tetrahydro-1H-carbazol-1-yl)-4-fluorobenzamide]	20 nM
O=C(NC1CCCc2c1[nH]c1ccc(Br)cc21)c1cccnc1 (stereo not shown) [Example 39, N-(6-Bromo-2,3,4,9-tetrahydro-1H-carbazol-1-yl)nicotinamide]	130 nM
O=C(N[C@H]1CCCc2c1[nH]c1ccc(Br)cc21)c1ccccc1 [Example 14C, N-[(1S)-6-bromo-2,3,4,9-tetrahydro-1H-carbazol-1-yl]benzamide]	5000 nM
O=C(N[C@H]1CCCc2c1[nH]c1ccc(Cl)cc21)c1ccccc1 [Example 36C, N-[(1S)-6-chloro-2,3,4,9-tetrahydro-1H-carbazol-1-yl]benzamide]	> 10000 nM
COc1ccc(NC(=O)NC2CCCc3c2[nH]c2ccc(Br)cc32)cc1 (stereo not shown) [Example 10, N-(6-Bromo-2,3,4,9-tetrahydro-1H-carbazol-1-yl)-N′-(4-methoxyphenyl)urea]	24000 nM
O=C(Cc1ccccc1)NC1CCCc2c1[nH]c1ccc(Br)cc21 (stereo not shown) [Example 15, N-(6-Bromo-2,3,4,9-tetrahydro-1H-carbazol-1-yl)-2-phenylacetamide]	580 nM
COc1ccccc1C(=O)NC1CCCc2c1[nH]c1ccc(Br)cc21 (stereo not shown) [Example 30, N-(6-Bromo-2,3,4,9-tetrahydro-1H-carbazol-1-yl)-2-methoxybenzamide]	> 10000 nM
COc1ccc(NC(=O)NC2CCCc3c2[nH]c2ccc(Br)cc32)cc1Cl (stereo not shown) [Example 12, N-(6-Bromo-2,3,4,9-tetrahydro-1H-carbazol-1-yl)-N′-(3-chloro-4-methoxyphenyl)urea]	> 10000 nM
O=C(N[C@@H]1CCCc2c1[nH]c1ccc(Cl)cc21)c1ccccc1F [Example 46B, N-[(1R)-6-chloro-2,3,4,9-tetrahydro-1H-carbazol-1-yl]-2-fluorobenzamide]	7 nM
O=C(Nc1ccccc1)NC1CCCc2c1[nH]c1ccccc21 (stereo not shown) [Example 42, N-Phenyl-N′-(2,3,4,9-tetrahydro-1H-carbazol-1-yl)urea]	> 10000 nM
Cc1ccc(C(=O)NC2CCCc3c2[nH]c2ccc(Br)cc32)cc1 (stereo not shown) [Example 24, N-(6-Bromo-2,3,4,9-tetrahydro-1H-carbazol-1-yl)-4-methylbenzamide]	8 nM
O=C(NC1CCCc2c1[nH]c1ccc(Br)cc21)c1c(F)cccc1F (stereo not shown) [Example 52, N-(6-bromo-2,3,4,9-tetrahydro-1H-carbazol-1-yl)-2,6-difluorobenzamide]	45 nM
O=C(NC1CCCc2c1[nH]c1ccc(Br)cc21)c1ccccc1[N+](=O)[O-] (stereo not shown) [Example 31, N-(6-Bromo-2,3,4,9-tetrahydro-1H-carbazol-1-yl)-2-nitrobenzamide]	> 7300 nM
Cn1cncc1C(=O)NC1CCCc2c1[nH]c1ccc(Cl)cc21 (stereo not shown) [Example 47, N-(6-Chloro-2,3,4,9-tetrahydro-1H-carbazol-1-yl)-1-methyl-1H-imidazole-5-carboxamide]	810 nM
